Counter-ions that a name gives are not always drawn.

The test system of this assay is mice. The assay is described as follows: SmartCube in vivo neuropharmacological behavioral assay. Particulars: for minimal effective dose: Mus musculus, ip, read-out: MED (minimal effective dose); for AD: antidepressant, percent probability / AG: analgesic, percent probability / AP: antipsychotic, percent probability / AX: anxiolytic, percent probability / CE: cognitive enhancer, percent probability / HA: hallucinogenic, percent probability / MS: mood stabilizer, percent probability / PS, percent probability / SD: sedative hypnotic, percent probability / SE: side effects, percent probability / UN: uncharacterized CNS activity, percent probability / XG: anxiogenic, percent probability: SmartCube, i.p. 15 min before test, at the MED. The method, then:
The compounds were evaluated for their CNS related properties (e.g., the treatment, prevention or diagnosis of CNS or CNS-related disorders and/or amelioration of symptoms) using neuropharmacological screening methods described in S. L. Roberts et al., Front. Neurosci. 2011, 5:103 (hereinafter referred to as “Roberts,” the contents of which are incorporated herein by reference in their entirety).
According to Roberts, intact systems are useful in detecting improvement in disease-relevant endpoints, because psychiatric diseases generally result from disorders of cell-cell communication or circuitry. The endpoints are typically behavioral in nature, often requiring human observation and interpretation. In order to test multiple compounds for behavioral effects relevant to neurological and psychiatric diseases and disorders, PsychoGenics, Inc. (Paramus, N.J. “PGI”) developed SmartCube®, an automated system in which behaviors of compound-treated mice are captured by digital video and analyzed with computer algorithms to facilitate testing of multiple compounds for behavioral effects relevant to psychiatric disease. (D. Brunner et al., Drug Discov. Today 2002, 7:S107-S112; Alexandrov et al., Eur. J. Pharmacol. 2015, 753:127-134; the contents of each of which are incorporated herein by reference in their entirety).
The SmartCube® system is described in Example 2.2 of U.S. Pat. No. 9,758,529 and Example 289 of WIPO Publication No. WO2018/023070, the contents of each of which are incorporated herein by reference in their entirety.
According to the present disclosure, compounds identified may be evaluated using the SmartCube® system. The results of such analysis correlate certain patterns or combinations of behaviors to CNS effects along a percent probability scale of 0-100 where zero (O) reflects the limit of quantitation (LOQ).
The compounds of the present disclosure were evaluated for their CNS related properties (e.g., the treatment, prevention or diagnosis of CNS or CNS-related disorders and/or amelioration of symptoms) using neuropharmacological screening methods described in S. L. Roberts et al., Front. Neurosci. 2011, 5:103 (hereinafter referred to as “Roberts,” the contents of which are incorporated herein by reference in their entirety).
The SmartCube® system described herein was utilized to compare the behavioral signature of a test compound to a database of behavioral signatures obtained using a large set of diverse reference compounds (including but not limited to antipsychotics, anxiolytics, antidepressants and bipolar disorder medicine), thereby predicting the neuropharmacological effects of a test compound by similarity to major classes of compounds. It produces an activity signature indicating the probability that the activity of the test compound at the administered dose matches a given class of neuropharmacological agents. The test compound is simultaneously compared against multiple classes of agents; thus, a separate probability is generated for each behavioral effect measured (such as but not limited to anxiolytic activity and analgesic activity).
The compounds of the present disclosure were dissolved in a mixture of Pharmasolve™ (N-methyl-2-pyrrolidone (NMP)) and were injected i.p. 15 min. before the behavioral test. For each compound, injections were administered at different dose levels (e.g., 0.3, 1, 3, 10 and 30 mg per kg (mpk)). A compound's minimal effective dose (MED; see Table 3) is a measure of the compound's potency. The MED was defined as the dose (in mpk) having 50% or more total activity in SmartCube®. For each behavioral effect measured, results at the MED are presented. CNS activities of the compounds were recorded (see Table 2). In Table 1, a key to the percent probabilities (probability×100) for each behavioral effect (“X”) are defined provided, where LOQ is the limit of quantification.

Where [1] appears, read: dose having 50% or more total activity in SmartCube, i.p.

In the case of `CC(C)N1C2C=CC1c1ccccc12` [Compound 53, 11-(Propan-2-yl)-11-azatricyclo[6.2.1.0^2,7]undeca-2,4,6,9-tetraene hydrochloride], the “AD: antidepressant, percent probability” value is given as “++ (5% ≤ X < 25%)”; the “AG: analgesic, percent probability” value is “++ (5% ≤ X < 25%)”; the “AP: antipsychotic, percent probability” value was “+ (LOQ ≤ X < 5%)”; the “AX: anxiolytic, percent probability” value is “++ (5% ≤ X < 25%)”. The “CE: cognitive enhancer, percent probability” value was “+ (LOQ ≤ X < 5%)”; the “HA: hallucinogenic, percent probability” value was “+ (LOQ ≤ X < 5%)”; the “MS: mood stabilizer, percent probability” value is on record as “+ (LOQ ≤ X < 5%)”; the “PS, percent probability” value is on record as “++ (5% ≤ X < 25%)”. The “SD: sedative hypnotic, percent probability” value (“SD … percent probability” for short) is “+ (LOQ ≤ X < 5%)”; the “SE: side effects, percent probability” value is “+ (LOQ ≤ X < 5%)”; the “UN: uncharacterized CNS activity, percent probability” value (“UN … percent probability” for short) is “++ (5% ≤ X < 25%)”; the “XG: anxiogenic, percent probability” value is “+ (LOQ ≤ X < 5%)”. The minimal effective dose under setting [1] lay within 10 to 30 mg/kg.
Turning to `C1=CC2NC1c1ccccc12` [Compound 52, 11-Azatricyclo[6.2.1.0^2,7]undeca-2,4,6,9-tetraene hydrochloride], the “AD: antidepressant, percent probability” value is on record as “+ (LOQ ≤ X < 5%)”; the “AG: analgesic, percent probability” value was “+ (LOQ ≤ X < 5%)”; the “AP: antipsychotic, percent probability” value is recorded as “+ (LOQ ≤ X < 5%)”; the “AX: anxiolytic, percent probability” value is on record as “+ (LOQ ≤ X < 5%)”. Further, the “CE: cognitive enhancer, percent probability” value is on record as “+ (LOQ ≤ X < 5%)”; the “HA: hallucinogenic, percent probability” value is “+ (LOQ ≤ X < 5%)”; the “MS: mood stabilizer, percent probability” value is “+ (LOQ ≤ X < 5%)”; the “PS, percent probability” value is listed as “+ (LOQ ≤ X < 5%)”. Further, the “SD … percent probability” value is recorded as “+ (LOQ ≤ X < 5%)”; the “SE: side effects, percent probability” value is recorded as “+ (LOQ ≤ X < 5%)”; the “UN … percent probability” value is “+ (LOQ ≤ X < 5%)”; the “XG: anxiogenic, percent probability” value was “+ (LOQ ≤ X < 5%)”. The minimal effective dose under setting [1] is over 30 mg/kg.
Turning to “11-[(2E)-Pent-2-en-1-yl]-11-azatricyclo[6.2.1.0^2,7]undeca-2,4,6,9-tetraene hydrochloride [Compound 9]”, the “AD: antidepressant, percent probability” value is given as “+ (LOQ ≤ X < 5%)”; the “AG: analgesic, percent probability” value is given as “+ (LOQ ≤ X < 5%)”; the “AP: antipsychotic, percent probability” value was “+ (LOQ ≤ X < 5%)”; the “AX: anxiolytic, percent probability” value is listed as “+ (LOQ ≤ X < 5%)”. Besides, the “CE: cognitive enhancer, percent probability” value is reported as “+ (LOQ ≤ X < 5%)”; the “HA: hallucinogenic, percent probability” value is “+ (LOQ ≤ X < 5%)”; the “MS: mood stabilizer, percent probability” value was “+ (LOQ ≤ X < 5%)”; the “PS, percent probability” value was “+ (LOQ ≤ X < 5%)”. For the same compound, the “SD … percent probability” value is “+ (LOQ ≤ X < 5%)”; the “SE: side effects, percent probability” value was “+ (LOQ ≤ X < 5%)”; the “UN … percent probability” value was “+ (LOQ ≤ X < 5%)”; the “XG: anxiogenic, percent probability” value is “+ (LOQ ≤ X < 5%)”. The “MED (minimal effective dose)” value under setting [1] was “+ (30 mg/kg < +)”.
Regarding `CC1=C(C)C2c3ccccc3C1N2C(C)C` [Compound 60, 9,10-Dimethyl-11-(propan-2-yl)-11-azatricyclo[6.2.1.0^2,7]undeca-2,4,6,9-tetraene hydrochloride], the “AD: antidepressant, percent probability” value is reported as “++++ (50% ≤ X <1 00%)”; the “AG: analgesic, percent probability” value is “++ (5% ≤ X < 25%)”; the “AP: antipsychotic, percent probability” value is recorded as “+ (LOQ ≤ X < 5%)”; the “AX: anxiolytic, percent probability” value was “+ (LOQ ≤ X < 5%)”. The “CE: cognitive enhancer, percent probability” value is recorded as “+ (LOQ ≤ X < 5%)”; the “HA: hallucinogenic, percent probability” value is listed as “+ (LOQ ≤ X < 5%)”; the “MS: mood stabilizer, percent probability” value is given as “+ (LOQ ≤ X < 5%)”; the “PS, percent probability” value was “++ (5% ≤ X < 25%)”. The “SD … percent probability” value was “+ (LOQ ≤ X < 5%)”; the “SE: side effects, percent probability” value was “+ (LOQ ≤ X < 5%)”; the “UN … percent probability” value was “+ (LOQ ≤ X < 5%)”; the “XG: anxiogenic, percent probability” value is “+ (LOQ ≤ X < 5%)”. In addition, the minimal effective dose under setting [1] lay within 10 to 30 mg/kg.
Take `CC(C)N1C2CCC1c1c(F)ccc(F)c12` [Compound 34, 3,6-Difluoro-11-(propan-2-yl)-11-azatricyclo[6.2.1.0^2,7]undeca-2,4,6-triene hydrochloride]: the “AD: antidepressant, percent probability” value is on record as “+ (LOQ ≤ X < 5%)”; the “AG: analgesic, percent probability” value is recorded as “+ (LOQ ≤ X < 5%)”; the “AP: antipsychotic, percent probability” value is “+ (LOQ ≤ X < 5%)”; the “AX: anxiolytic, percent probability” value is “+ (LOQ ≤ X < 5%)”. For the same compound, the “CE: cognitive enhancer, percent probability” value is “+ (LOQ ≤ X < 5%)”; the “HA: hallucinogenic, percent probability” value is “+ (LOQ ≤ X < 5%)”; the “MS: mood stabilizer, percent probability” value is “+ (LOQ ≤ X < 5%)”; the “PS, percent probability” value was “+ (LOQ ≤ X < 5%)”. In addition, the “SD … percent probability” value is given as “+ (LOQ ≤ X < 5%)”; the “SE: side effects, percent probability” value is “+ (LOQ ≤ X < 5%)”; the “UN … percent probability” value is given as “+ (LOQ ≤ X < 5%)”; the “XG: anxiogenic, percent probability” value is on record as “+ (LOQ ≤ X < 5%)”. For the same compound, under setting [1], the minimal effective dose is over 30 mg/kg.
In the case of `COc1ccc2c(c1)C1CCC2N1C(C)C` (stereo not shown) [Compound 35, 4-Methoxy-11-(propan-2-yl)-11-azatricyclo[6.2.1.0^2,7]undeca-2,4,6-triene], the “AD: antidepressant, percent probability” value is listed as “+ (LOQ ≤ X < 5%)”; the “AG: analgesic, percent probability” value is on record as “+ (LOQ ≤ X < 5%)”; the “AP: antipsychotic, percent probability” value is recorded as “+ (LOQ ≤ X < 5%)”; the “AX: anxiolytic, percent probability” value is on record as “++ (5% ≤ X < 25%)”. Further, the “CE: cognitive enhancer, percent probability” value is “+ (LOQ ≤ X < 5%)”; the “HA: hallucinogenic, percent probability” value is “+ (LOQ ≤ X < 5%)”; the “MS: mood stabilizer, percent probability” value is “+ (LOQ ≤ X < 5%)”; the “PS, percent probability” value is “+ (LOQ ≤ X < 5%)”. Also, the “SD … percent probability” value is listed as “+++ (25% ≤ X < 50%)”; the “SE: side effects, percent probability” value is given as “+ (LOQ ≤ X < 5%)”; the “UN … percent probability” value is given as “++ (5% ≤ X < 25%)”; the “XG: anxiogenic, percent probability” value is “+ (LOQ ≤ X < 5%)”. Also, the minimal effective dose under setting [1] was 1 to 10 mg/kg.
Consider `CC(C)C(C)N1C2C=CC1c1ccccc12` (stereo not shown) [Compound 58, 11-(3-Methylbutan-2-yl)-11-azatricyclo[6.2.1.0^2,7]undeca-2,4,6,9-tetraene hydrochloride], for which the “AD: antidepressant, percent probability” value was “++ (5% ≤ X < 25%)”; the “AG: analgesic, percent probability” value was “+ (LOQ ≤ X < 5%)”; the “AP: antipsychotic, percent probability” value was “+ (LOQ ≤ X < 5%)”; the “AX: anxiolytic, percent probability” value is given as “+ (LOQ ≤ X < 5%)”. Further, the “CE: cognitive enhancer, percent probability” value is “+ (LOQ ≤ X < 5%)”; the “HA: hallucinogenic, percent probability” value was “+ (LOQ ≤ X < 5%)”; the “MS: mood stabilizer, percent probability” value was “+ (LOQ ≤ X < 5%)”; the “PS, percent probability” value was “+ (LOQ ≤ X < 5%)”. Moreover, the “SD … percent probability” value is “+ (LOQ ≤ X < 5%)”; the “SE: side effects, percent probability” value is listed as “+ (LOQ ≤ X < 5%)”; the “UN … percent probability” value is “+ (LOQ ≤ X < 5%)”; the “XG: anxiogenic, percent probability” value is on record as “+ (LOQ ≤ X < 5%)”. The minimal effective dose under setting [1] was over 30 mg/kg.

The record behind these values is patent publication US20230109801A1 (Blue Oak Pharmaceuticals, Inc., priority 2020, published 2023).
